Measurements as given in patent US6610715B1, “Cathecol hydrazone derivatives, process for preparing the same and pharmaceutical composition containing the same” (Cheil Jedang Corporation, priority 2001, dated 2003).

System: Phosphodiesterase IV partially purified from human U937 cells
Experiment: Inhibition of Phosphodiesterase IV Activity ([3H]cAMP hydrolysis, scintillation counting)
Format: biochemical
Conditions: 1.0 uM cAMP, 30° C., 20 minutes
Description: Compounds prepared by Examples 1 through 16 and Rolipram as control were tested on the inhibition of phosphodiesterase IV.
Phosphodiesterase IV partially purified from human U937 cells, test compound and 1.0 uM cAMP including 0.01 uM[^3H]cAMP were incubated at 30° C. for 20 minutes. The PDE reaction to convert cAMP into AMP was […] by boiling the reaction solution for 2 minutes. AMP was converted into adenosine by adding snake venom nucleotidase and incubating the reaction solution at 30° C. for 10 minutes. While unhydrolyzed cAMPs were bonded to AG1-X2 resin, the [^3H]adenosine in the aqueous solution was quantified by scintillation counting. The results are shown in Table I below, in which the values indicate inhibition (%) of the PDE IV by each test compound.

[1] = test compound concentration 2 uM
[2] = test compound concentration 20 uM

SMILES: COc1ccc(/C=N/NC(=O)c2ccncc2)cc1OC1CCCC1 [EXAMPLE 1, (E)-3-cyclopentyloxy-4-methoxybenzaldehyde isonicotinic hydrazone]
- Inhibition (%) of the PDE IV [1]: 38.4%
- Inhibition (%) of the PDE IV [2]: 66.7%

SMILES: CCOC(=O)N/N=C/c1ccc(OC)c(OC2CCCC2)c1 [EXAMPLE 2, (E)-ethyl[(3-cyclopentyloxy-4-methoxyphenyl)methylene]hydrazinoformate]
- Inhibition (%) of the PDE IV [1]: 46.7%
- Inhibition (%) of the PDE IV [2]: 63.7%

SMILES: COc1ccc(/C=N/Nc2ccccc2)cc1OC1CCCC1 [EXAMPLE 3, (E)-3-cyclopentyloxy-4-methoxybenzaldehyde phenylhydrazone]
- Inhibition (%) of the PDE IV [1]: 46.6%
- Inhibition (%) of the PDE IV [2]: 80.4%

SMILES: COc1ccc(/C=N/NC(C)=O)cc1OC1CCCC1 [EXAMPLE 4, (E)-3-cyclopentyloxy-4-methoxybenzaldehyde acetic hydrazone]
- Inhibition (%) of the PDE IV [1]: 51.7%
- Inhibition (%) of the PDE IV [2]: 72.1%

SMILES: COc1ccc(/C=N/NC2=NCCN2)cc1OC1CCCC1 [EXAMPLE 6, (E)-3-cyclopentyloxy-4-methoxybenzaldehyde 2-imidazolinohydrazone]
- Inhibition (%) of the PDE IV [1]: 31.7%
- Inhibition (%) of the PDE IV [2]: 58.3%

SMILES: COc1ccc(/C=N/NC(N)=O)cc1OC1CCCC1 [EXAMPLE 7, (E)-2-[(3-cyclopentyloxy-4-methoxyphenyl)methylene]hydrazinecarboxamide]
- Inhibition (%) of the PDE IV [1]: 66.2%
- Inhibition (%) of the PDE IV [2]: 89.7%

SMILES: COc1ccc(/C=N/NC(N)=S)cc1OC1CCCC1 [EXAMPLE 9, (E)-2-[(3-cyclopentyloxy-4-methoxyphenyl)methylene]hydrazinecarbothioamide]
- Inhibition (%) of the PDE IV [1]: 69.0%
- Inhibition (%) of the PDE IV [2]: 81.0%

SMILES: COc1ccc(/C=N/Nc2ccc(Cl)cc2)cc1OC1CCCC1 [EXAMPLE 10, (E)-3-cyclopentyloxy-4-methoxybenzaldehyde 4chlorophenylhydrazone]
- Inhibition (%) of the PDE IV [1]: 39.3%
- Inhibition (%) of the PDE IV [2]: 70.7%

SMILES: COc1ccc(/C=N/NC(=O)C[N+](C)(C)C)cc1OC1CCCC1 [EXAMPLE 11, (E)-2[(3-cyclopentyloxy-4-methoxyphenyl)methylene]hydrazinecarbonylmethyl(trimethyl)ammonium chloride]
- Inhibition (%) of the PDE IV [1]: 43.3%
- Inhibition (%) of the PDE IV [2]: 45.1%

SMILES: COc1ccc(/C=N/N2CCCCC2)cc1OC1CCCC1 [EXAMPLE 13, (E)-N-piperidino-3-cyclopentyloxy-4-methoxyphenylmethaneimine]
- Inhibition (%) of the PDE IV [1]: 31.4%
- Inhibition (%) of the PDE IV [2]: 73.3%

SMILES: COc1ccc(/C=N/NC(=N)N)cc1OC1CCCC1 [EXAMPLE 14, (E)-2-[(3-cyclopentyloxy-4-methoxyphenyl)methylene]hydrazinecarboximidamide]
- Inhibition (%) of the PDE IV [1]: 14.7%
- Inhibition (%) of the PDE IV [2]: 57.7%

SMILES: COc1ccc(/C=N/Nc2ccccn2)cc1OC1CCCC1 [EXAMPLE 15, (E)-3-cyclopentyloxy-4-methoxybenzaldehyde 2-pyridinylhydrazone]
- Inhibition (%) of the PDE IV [1]: 49.4%
- Inhibition (%) of the PDE IV [2]: 63.6%

SMILES: COc1ccc(/C=N/Nc2ccccc2C(=O)O)cc1OC1CCCC1 [EXAMPLE 16, (E)-3-cyclopentyloxy-4-methoxybenzaldehyde 2-carboxyphenylhydrazone]
- Inhibition (%) of the PDE IV [1]: 42.3%
- Inhibition (%) of the PDE IV [2]: 76.6%

SMILES: COc1ccc(C2CNC(=O)C2)cc1OC1CCCC1 (stereo not shown) [Rolipram, reference compound]
- Inhibition (%) of the PDE IV [1]: 62.5%
- Inhibition (%) of the PDE IV [2]: 70.1%
